In patent US4593093A, “Acyl derivatives” (priority 1980, dated 1986):
Structures can show the parent of a compound that is named as a salt. Where two headings read alike, the source gives them in different places.

Columns and labels:
[1] = tested on: Escherichia coli; assay: Activity in vivo: survival of intraperitoneally infected mice; conditions: sc, 96 h; mice infected i.p. with Escherichia coli; s.c. twice, 1 h and 3 h after infection; survival on 4th day; read-out: CD50 (dosage at which 50% of the animals survive)
Protocol: (§1) Groups of 5 mice are infected intraperitoneally with an aqueous suspension of various pathogens. The test substance in physiological sodium chloride solution is administered subcutaneously twice, i.e. 1 hour and 3 hours after the infection. The number of surviving animals is determined on the 4th day. Various dosages are administered and that dosage at which 50% of the experimental animals survive (CD50, mg/kg) is determined by interpolation.

[2] = tested on: Serratia marcescens; assay: as above; conditions: sc, 96 h, mice infected i.p. with Serratia marcescens strain 1, s.c. twice, 1 h and 3 h after infection, survival on 4th day, read-out: CD50 (dosage at which 50% of the animals survive)
Protocol: as §1

[3] = tested on: Streptococcus pyogenes; assay: as above; conditions: sc, 96 h; mice infected i.p. with Streptococcus pyogenes; s.c. twice, 1 h and 3 h after infection; survival on 4th day; read-out: CD50 (dosage at which 50% of the animals survive)
Protocol: as §1

[4] = tested on: Escherichia coli; assay: Activity in vitro: minimum inhibitory concentration; format: cell-based
[5] = tested on: Citrobacter freundii; assay: as above; format: cell-based
[6] = tested on: Pseudomonas aeruginosa; assay: as above; format: cell-based
[7] = tested on: Enterobacter cloacae; assay: as above; format: cell-based
[8] = tested on: Streptococcus pyogenes; assay: as above; format: cell-based
[9] = tested on: Serratia marcescens; assay: as above; format: cell-based
[10] = tested on: Pseudomonas aeruginosa; assay: Activity in vivo: survival of intraperitoneally infected mice; conditions: sc, 96 h; mice infected i.p. with Pseudomonas aeruginosa; s.c. three times, 1 h, 3 h and 5 h after infection; survival on 4th day; read-out: CD50 (dosage at which 50% of the animals survive)
Protocol: as §1
*Administered subcutaneously three times: 1 hour, 3 hours and 5 hours

[11] = Toxicity, LD50; conditions: in vivo
[12] = tested on: Proteus vulgaris; assay: Activity in vitro: minimum inhibitory concentration; format: cell-based
[13] = tested on: Staphylococcus aureus; assay: as above; format: cell-based
[14] = tested on: Klebsiella pseumoniae; assay: as above; format: cell-based
[15] = tested on: Proteus mirabilis; assay: as above; format: cell-based
[16] = tested on: Proteus morganii; assay: as above; format: cell-based; conditions: Morganella morganii
[17] = tested on: Haemophilus influenzae; assay: Activity in vivo: survival of intraperitoneally infected mice; conditions: sc, 96 h; mice infected i.p. with Haemophilus influenzae; s.c. twice, 1 h and 3 h after infection; survival on 4th day; read-out: CD50 (dosage at which 50% of the animals survive)
Protocol: as §1

[18] = tested on: Enterobacter cloacae; assay: as above; conditions: sc, 96 h; mice infected i.p. with Enterobacter cloacae; s.c. twice, 1 h and 3 h after infection; survival on 4th day; read-out: CD50 (dosage at which 50% of the animals survive)
Protocol: as §1

[19] = tested on: Streptococcus faecalis; assay: Activity in vitro: minimum inhibitory concentration; format: cell-based; conditions: Enterococcus faecalis
[20] = tested on: Streptococcus pneumoniae; assay: as above; format: cell-based
[21] = tested on: Enterobacter aerogenes; assay: as above; format: cell-based; conditions: Klebsiella aerogenes
[22] = tested on: Proteus rettgeri; assay: as above; format: cell-based; conditions: Providencia rettgeri
[23] = tested on: Staphylococcus epidermis; assay: as above; format: cell-based
[24] = tested on: Neisseria moningitidis; assay: Activity in vivo: survival of intraperitoneally infected mice; conditions: sc, 96 h; mice infected i.p. with Neisseria moningitidis; s.c. twice, 1 h and 4 h after infection; survival on 4th day; read-out: CD50 (dosage at which 50% of the animals survive)
Protocol: as §1
**Administered subcutaneously twice: 1 hour and 4 hours after the […]

[25] = tested on: Proteus inconstans; assay: Activity in vitro: minimum inhibitory concentration; format: cell-based; conditions: Providencia alcalifaciens
[26] = tested on: Streptococcus viridans; assay: as above; format: cell-based
[27] = Pseudomonas aeruginosa strain 1
[28] = Pseudomonas aeruginosa strain 2
[29] = Pseudomonas aeruginosa strain 3
[30] = Streptococcus pyogenes strain 1, read-out: Minimum inhibitory concentration

CO/N=C(\C(=O)N[C@@H]1C(=O)N2C(C(=O)O)=C(COC(C)=O)CS[C@H]12)c1c[se]c(N)n1 [Product D, (6R, 7R)-3-(acetoxymethyl)-7-[2-(2-amino-4-selenazolyl)-2-[(Z)-methoxyimino]-acetamido]-8-oxo-5-thia-1-azabicyclo[4.2.0]oct-2-ene-2-carboxylic acid disodium salt]
ED50 [1]: < 0.01 mg/kg
ED50 [2]: 0.14 mg/kg
ED50 [3]: 0.05 mg/kg
MIC ([4]; Escherichia coli strain 1): 0.1 µg/mL
MIC ([4]; Escherichia coli strain 2): 0.025 µg/mL
MIC ([5]; Citrobacter freundii strain 1): 6.3 µg/mL
MIC [6, 27]: 12.5 µg/mL
MIC [6, 28]: 12.5 µg/mL
MIC [6, 29]: 3.1 µg/mL
MIC ([7]; Enterobacter cloacae strain 1): > 100 µg/mL
MIC ([7]; Enterobacter cloacae strain 2): 3.1 µg/mL
MIC [8, 30]: 0.05 µg/mL
MIC ([9]; Serratia marcescens strain 1): 0.8 µg/mL
MIC ([9]; Serratia marcescens strain 2): 0.8 µg/mL
ED50 [10]: 35 mg/kg
LD50 ([11]; po): > 5000 mg/kg
LD50 ([11]; sc): > 4000 mg/kg
MIC [12]: 0.78 µg/mL
MIC ([13]; Staphylococcus aureus strain 1): 0.8 µg/mL
MIC ([13]; Staphylococcus aureus strain 2): 3.1 µg/mL
MIC ([14]; Klebsiella pseumoniae strain 1): 0.2 µg/mL
MIC ([14]; Klebsiella pseumoniae strain 2): 0.025 µg/mL
MIC ([15]; Proteus mirabilis strain 1): 0.025 µg/mL
MIC ([15]; Proteus mirabilis strain 2): 0.05 µg/mL
MIC [16]: 0.39 µg/mL

CO/N=C(\C(=O)N[C@@H]1C(=O)N2C(C(=O)O)=C(CSc3nc(=O)c(O)nn3C)C[S+]([O-])[C@H]12)c1c[se]c(N)n1 (stereo partly drawn) [Product E, (6R, 7R)-7-[2-(2-amino-4-selenazolyl)-2-[(Z)-methoxyimino]-acetamido]-3-[[(2,5-dihydro-6-hydroxy-2-methyl-5-oxo-as-triazin-3-yl)-thio]methyl]-8-oxo-5-thia-1-azabicyclo[4.2.0]oct-2-ene-2-carboxylic acid 5-oxide disodium salt]
ED50 [1]: 0.017 mg/kg
ED50 [2]: 0.03 mg/kg
ED50 [17]: 1.8 mg/kg
ED50 [18]: 0.06 mg/kg
ED50 [3]: 0.13 mg/kg
MIC ([19]; Streptococcus faecalis strain 1): > 12 µg/mL
MIC ([19]; Streptococcus faecalis strain 2): > 12 µg/mL
MIC ([4]; Escherichia coli strain 1): 0.1 µg/mL
MIC ([4]; Escherichia coli strain 2): 0.025 µg/mL
MIC ([4]; Escherichia coli strain 3): 0.8 µg/mL
MIC ([4]; Escherichia coli strain 4): 0.05 µg/mL
MIC ([4]; Escherichia coli strain 5): 0.4 µg/mL
MIC [20]: 3.1 µg/mL
MIC ([21]; Enterobacter aerogenes strain 1): 0.1 µg/mL
MIC ([21]; Enterobacter aerogenes strain 2): 0.05 µg/mL
MIC ([5]; Citrobacter freundii strain 1): 0.1 µg/mL
MIC ([5]; Citrobacter freundii strain 2): 0.1 µg/mL
MIC [22]: 0.05 µg/mL
MIC [6, 27]: 100 µg/mL
MIC [6, 28]: 100 µg/mL
MIC [6, 29]: 50 µg/mL
MIC [23]: > 12 µg/mL
MIC ([7]; Enterobacter cloacae strain 1): 1.6 µg/mL
MIC ([7]; Enterobacter cloacae strain 2): 0.2 µg/mL
MIC ([7]; Enterobacter cloacae strain 3): 1.6 µg/mL
MIC [8, 30]: 3.1 µg/mL
MIC ([8]; Streptococcus pyogenes strain 2, read-out: Minimum inhibitory concentration): 0.2 µg/mL
ED50 [24]: < 0.1 mg/kg
MIC ([9]; Serratia marcescens strain 1): 0.8 µg/mL
MIC ([9]; Serratia marcescens strain 2): 0.8 µg/mL
MIC ([9]; Serratia marcescens strain 3): 0.2 µg/mL
ED50 [10]: 75 mg/kg
MIC [25]: 0.025 µg/mL
LD50 ([11]; po): > 5000 mg/kg
LD50 ([11]; sc): > 4000 mg/kg
MIC ([13]; Staphylococcus aureus strain 1): > 12 µg/mL
MIC ([13]; Staphylococcus aureus strain 2): > 12 µg/mL
MIC ([13]; Staphylococcus aureus strain 3): > 12 µg/mL
MIC ([13]; Staphylococcus aureus strain 4): > 12 µg/mL
MIC [26]: > 12 µg/mL
MIC ([14]; Klebsiella pseumoniae strain 1): 0.1 µg/mL
MIC ([14]; Klebsiella pseumoniae strain 2): 0.05 µg/mL
MIC ([14]; Klebsiella pseumoniae strain 3): 0.1 µg/mL
MIC ([15]; Proteus mirabilis strain 3): 0.05 µg/mL
MIC ([15]; Proteus mirabilis strain 4): 0.4 µg/mL
MIC ([15]; Proteus mirabilis strain 5): 0.1 µg/mL
MIC [16]: 0.1 µg/mL
